Assay results published in US6133279A, “Therapeutic agents for renal diseases and organ preservatives” (Chugai Seiyaku Kabushiki Kaisha, priority 1996, dated 2000).

Tests used:
[1] = test system: porcine kidney-derived LLC-PK1 cells; assay: Protective effect against oxidized LDL-induced injury of porcine kidney-derived LLC-PK1 cells (2); assay type: cell-based; conditions: Sus scrofa, LLC-PK1, 6 h, mean ± standard deviation, read-out: Cytoprotection rate (%)
Protocol: For the purpose of evaluating in vitro cytoprotective effect of the compounds of the present invention, a cytoprotective study was performed using porcine kidney-derived LLC-PK1 cells (ATCC-CRL-13921) injured by oxidized low-density lipoprotein (oxidized LDL) in the same manner as in Test example 1 with the exception of some points.
Preparation of oxidized LDL and the conditions for cell culture and addition of test compounds were the same as in Test example 1. However, oxidized LDL was not diluted with saline and added to cells in an amount of 25 μl/well to a concentration of 91 μg/ml and the cells were cultured for 6 hours after addition of the oxidized LDL. Then, 150 μl/well of the culture medium were collected and measured for the lactate dehydrogenase (LDH) level (LD-L: SIGMA DIAGNOSTICS) having leaked in the medium.

[2] = test system: porcine kidney-derived LLC-PK1 cells; assay: Protective effect against oxidized LDL-induced injury of porcine kidney-derived LLC-PK1 cells (1); assay type: cell-based; conditions: Sus scrofa, LLC-PK1, 6 h, mean ± standard deviation, read-out: Cytoprotection rate (%)
Protocol: For the purpose of evaluating in vitro cytoprotective effect of the compounds of the present invention, a cytoprotective study was performed using porcine kidney-derived LLC-PK1 cells (ATCC-CRL-13921) injured by oxidized low-density lipoprotein (oxidized LDL).
Oxidized LDL was prepared by incubating 1 mg/ml of rabbit LDL in PBS (-) in the presence of 10 μM CuSO4 at 37° C. for 24 hours. Cell culture was carried out by plating 1.25×10^4 cells/250 μl/well on a 48-well plate containing M199 medium containing 3% FBS. Test compounds were dissolved or suspended in ethanol and added to the wells in an amount of 1.25 μl/well to a concentration of 0.1, 1 or 10 μM in each well. After 16 hours or immediately after the addition of the compounds, oxidized LDL was added to the wells. Probucol, α-tocopherol and Trolox which is a water-soluble analogue of α-tocopherol were used as reference control compounds. Oxidized LDL was diluted twice with saline and then added to the wells in an amount of 62.5 μl/well to a concentration of 100 μg/ml and the cells were cultured for 6 hours after addition of the oxidized LDL. Then, 162.5 μl/well of the culture medium were collected and measured for the lactate dehydrogenase (LDH) level (LD-L: SIGNA DIAGNOSTICS) having leaked into the medium.
The magnitude of cytoprotective effect was expressed as the cytoprotection rate which was determined by calculating the data assuming that the magnitude in wells containing oxidized LDL is 0% and that the magnitude in wells containing saline is 100%.

[3] = compound added 16 hours before adding oxidized LDL
[4] = compound added immediately before adding oxidized LDL

Row | SMILES | inhibition at 0.1 µM [1, 3] [%] | inhibition at 0.1 µM [1, 4] [%] | inhibition at 1 µM [1, 3] [%] | inhibition at 1 µM [1, 4] [%] | inhibition at 10 µM [1, 3] [%] | inhibition at 10 µM [1, 4] [%] | inhibition at 0.1 µM [2, 3] [%] | inhibition at 0.1 µM [2, 4] [%] | inhibition at 1 µM [2, 3] [%] | inhibition at 1 µM [2, 4] [%] | inhibition at 10 µM [2, 3] [%] | inhibition at 10 µM [2, 4] [%]
1 | CC(C)(C)c1cc2c(c(C(C)(C)C)c1O)CC1(CCCCC1)O2 [Example 19, 4,6-Di-t-butyl-5-hydroxy-2,3-dihydrobenzofuran-2-spiro-1'-cyclohexane] | 2.7 ± 1.6 | 1.2 ± 0.9 | 60.6 ± 6.1 | 86.8 ± 5.2 | 103 ± 1.2 | 101 ± 2.5 |  |  |  |  |  | 
2 | CC1(C(=O)O)Cc2c(cc(C(C)(C)C)c(O)c2C(C)(C)C)O1 (stereo not drawn) [Example 72, 4,6-Di-t-butyl-5-hydroxy-2-methyl-2,3-dihydrobenzofuran-2-carboxylic acid] | 2.3 ± 1.3 | 2.7 ± 4.3 | 14.8 ± 2 | 14 | 95.9 ± 1.3 | 95.2 ± 0.9 |  |  |  |  |  | 
3 | CCCCCC1(CCCCC)Cc2c(cc(C(C)(C)C)c(O)c2C(C)(C)C)S1 [Example 50, 4,6-Di-t-butyl-5-hydroxy-2,2-di-n-pentyl-2,3-dihydrobenzothiophene] |  |  |  |  |  |  | 1.9 ± 8 | 9.3 ± 3.3 | 37.4 ± 17.1 | 15.3 | 81.6 ± 4 | 99.2 ± 1.3
4 | CC(=O)Oc1c(C(C)(C)C)cc2c(c1C(C)(C)C)CC(C)(C)O2 [Example 3, 5-Acetoxy-4,6-di-t-butyl-2,2-dimethyl-2,3-dihydrobenzofuran] |  |  |  |  |  |  | 27 ± 18.2 | -6.5 ± 2.7 | 1.8 ± 6.8 | -4 | 23.2 ± 11.3 | 4.3 ± 3.6
5 | CC(C)(C)c1cc2c(c(C(C)(C)C)c1O)CCO2 [Example 1, 4,6-Di-t-butyl-5-hydroxy-2,3-dihydrobenzofuran] |  |  |  |  |  |  | 22.3 ± 2.8 | 7.6 ± 1.4 | 104 ± 3.3 | 99.7 ± 0.4 | 100.9 ± 0.5 | 100.9 ± 0.3
6 | CCCc1c2c(c(C(C)(C)C)c(O)c1C(C)(C)C)CC(C)(C)O2 [Example 25, 5-Hydroxy-4,6-di-t-butyl-2,2-dimethyl-7-propyl-2,3-dihydrobenzofuran] |  |  |  |  |  |  | 47.4 ± 6 | 1.4 ± 3.8 | 7.9 ± 10.8 | 0.8 | 28.6 ± 6.4 | 66.5 ± 7.7
7 | CN(C)CC1(C)Cc2c(cc(C(C)(C)C)c(O)c2C(C)(C)C)S1 (stereo not drawn) [Example 61, 4,6-Di-t-butyl-5-hydroxy-2-(N,N-dimethylaminomethyl)-2-methyl-2,3-dihydrobenzothiophene] | 5 ± 1.2 | 5.1 ± 1.5 | 85.7 ± 8.1 | 97.6 | 101.3 ± 0.6 | 101.7 ± 0.5 |  |  |  |  |  | 
8 | C/C(=C\CCC1(C)Cc2c(cc(C(C)(C)C)c(O)c2C(C)(C)C)O1)CO (stereo not drawn) [Example 46, 4,6-Di-t-butyl-5-hydroxy-2-(5-hydroxy-4-methyl-3(E)-pentenyl)-2-methyl-2,3-dihydrobenzofuran] |  |  |  |  |  |  | 11 ± 1.5 | -8.9 ± 3.1 | 53.5 ± 10 | 101 | 104 ± 2 | 104.4 ± 0.4
9 | CC(C)(C)c1cc2occc2c(C(C)(C)C)c1O [Example 27, 4,6-Di-t-butyl-5-hydroxybenzofuran] |  |  |  |  |  |  | 44.1 ± 24.3 | 4.2 ± 1.4 | 96 ± 0.7 | 91 | 97.7 ± 1.7 | 96.8 ± 0.5
10 | CC(C)(C)c1cc2c(c(C(C)(C)C)c1O)CC1(CCSCC1)O2 [Example 68, 4,6-Di-t-butyl-5-hydroxy-2,3-dihydrobenzofuran-2-spiro-4'-tetrahydrothiopyran] | 12 ± 3.6 | 6.3 ± 3.3 | 56.2 ± 4.6 | 85.8 | 102 ± 1.5 | 100.6 ± 0.2 |  |  |  |  |  | 
11 | CC1(C)Cc2c(cc(C(C)(C)C)c(O)c2C(C)(C)C)S1 [Example 52, 4,6-Di-t-butyl-5-hydroxy-2,2-dimethyl-2,3-dihydrobenzothiophene] |  |  |  |  |  |  | 6.5 ± 1.4 | -0.7 ± 1.1 | 41.2 ± 11.9 | 96.9 | 99.1 ± 0.1 | 99.5 ± 0.4
12 | CC(C)(C)c1cc2c(c(C(C)(C)C)c1O)CC1(CCCC1)O2 [Example 18, 4,6-Di-t-butyl-5-hydroxy-2,3-dihydrobenzofuran-2-spiro-1'-cyclopentane] |  |  |  |  |  |  | -1.9 ± 17.3 | -4.5 ± 6.3 | 66.8 ± 22.2 | 98.4 | 99.9 ± 0.2 | 99.7 ± 0.2
13 | CC(C)(C)c1cc2c(c(C(C)(C)C)c1O)CC1(CCOCC1)O2 [Example 22, 4,6-Di-t-butyl-5-hydroxy-2,3-dihydrobenzofuran-2-spiro-4'-tetrahydropyran] |  |  |  |  |  |  | 3.5 ± 10.4 | -1.7 ± 0.2 | 102.2 ± 0.2 | 101 | 101 ± 0.5 | 101.1 ± 0.2
14 | CC(C)(C)c1cc2sccc2c(C(C)(C)C)c1O [Example 54, 4,6-Di-t-butyl-5-hydroxybenzo[b]thiophene] |  |  |  |  |  |  | 96 ± 0.5 | 35.9 ± 26.4 | 90 ± 5 | 96.7 | 94.8 ± 2.2 | 98.9 ± 0.4
15 | CC1(CC#N)Cc2c(cc(C(C)(C)C)c(O)c2C(C)(C)C)O1 (stereo not drawn) [Example 71, 4,6-Di-t-butyl-2-cyanomethyl-5-hydroxy-2-methyl-2,3-dihydrobenzofuran] | 10.4 ± 2.2 | 4.3 ± 4.1 | 26.9 ± 2.5 | 80.2 | 105.6 ± 0.6 | 107 ± 2 |  |  |  |  |  | 
16 | CC(C)(C)c1cc2c(c(C(C)(C)C)c1O)CC1(CCCCC1)S2 [Example 58, 4,6-Di-t-butyl-5-hydroxy-2,3-dihydrobenzothiophene-2-spiro-1'-cyclohexane] |  |  |  |  |  |  | 3.6 ± 18.3 | 11 ± 4 | 95 ± 4.2 | 74.3 | 99.3 ± 0.9 | 101 ± 0.2
17 | CCCOc1cc(C(C)(C)C)c(O)c(C(C)(C)C)c1C [Example 31, 2,6-Di-t-butyl-3-methyl-4-propyloxyphenol] |  |  |  |  |  |  | -0.1 ± 18.7 | 6.9 ± 1.1 | 3.5 ± 18.5 | 15.7 | 68.8 ± 15.8 | 71.8 ± 6.9
18 | CC1(C)Cc2c(cc(C(C)(C)C)c(O)c2C(C)(C)C)O1 [Example 4, 4,6-Di-t-butyl-5-hydroxy-2,2-dimethyl-2,3-dihydrobenzofuran] |  |  |  |  |  |  | 11.5 ± 8 | -9.6 ± 2.2 | 106 ± 1.2 | 103 | 100.4 ± 0.3 | 99.6 ± 0.8
19 | COC(=O)C1(C)Cc2c(cc(C(C)(C)C)c(O)c2C(C)(C)C)O1 (stereo not drawn) [Example 73, 4,6-Di-t-butyl-5-hydroxy-2-methoxycarbonyl-2-methyl-2,3-dihydrobenzofuran] | 5.7 ± 1.4 | 4.8 ± 2.9 | 78.9 ± 16.9 | 97.8 | 99.7 ± 1.4 | 99.4 ± 0.3 |  |  |  |  |  | 
20 | CC1Cc2c(cc(C(C)(C)C)c(O)c2C(C)(C)C)S1 (stereo not drawn) [Example 51, 4,6-Di-t-butyl-5-hydroxy-2-methyl-2,3-dihydrobenzothiophene] |  |  |  |  |  |  | -6.1 ± 7.6 | 2.2 ± 4.9 | 17.8 ± 18.1 | 28.9 | 99.3 ± 0.7 | 101.4 ± 0.3
21 | CC1(CO)Cc2c(cc(C(C)(C)C)c(O)c2C(C)(C)C)O1 (stereo not drawn) [Example 48, 4,6-Di-t-butyl-5-hydroxy-2-hydroxymethyl-2-methyl-2,3-dihydrobenzofuran] |  |  |  |  |  |  | -0.5 ± 23.4 | 3.8 ± 0.3 | 84.2 ± 4.4 | 102 | 98.1 ± 0.7 | 98.2 ± 0.3
22 | CC(C)(C)c1cc2c(c(C(C)(C)C)c1O)CC(C(C)(C)C)O2 (stereo not drawn) [Example 13, 2,4,6-Tri-t-butyl-5-hydroxy-2,3-dihydrobenzofuran] |  |  |  |  |  |  | 32 ± 2.8 | 11.9 ± 1.9 | 55.6 ± 15 | 97.8 | 99.9 ± 0.2 | 100.4 ± 0.4
